Where a name gives a salt, the structure may show the parent alone.
Experiments:
[1] = target: T1, cardiac L-type calcium channel (Homo sapiens, UniProt Q13936); test: Calcium current (ICa) block, whole-cell patch clamp in isolated human atrial myocytes; assay type: cell-based; details: for Fold Difference (Parent vs. Derivative): ratio of IC50 at 0.1 Hz, derivative vs. dantrolene; for IC50: read-out: IC50 at 0.1 Hz
T1 construct: Human myocytes were obtained from specimens of human right atrial appendage obtained during surgery; endogenous in cells; host or cells: primary human atrial myocytes isolated from right atrial appendage
Description: Human myocytes were obtained from specimens of human right atrial appendage obtained during surgery from hearts of patients undergoing cardiopulmonary bypass. The isolation procedure produced rod-shaped, calcium tolerant cells which were used within 24 hours after isolation (Crumb et al., (1995) Am J Physiol 268:H1335-H1342).
The whole-cell patch clamp technique was carried out at 23±1° C. with precise micromanipulation under high power visual magnification to measure calcium currents. Glass pipettes were fire polished to produce tip diameters of 1-4 μm. The tip of the pipette, filled with electrolyte “internal” solution (a composition of (mM): 120 CsCl, 20 TEACl, 5 NaCl, 1 CaCl2, 10 EGTA, 10 HEPES, 5 MgATP, 0.2 Na2GTP, adjusted to pH 7.2 with CsOH) was positioned onto a cell. The cell was in a bathing “external” solution (consisting of (mM): 1.8 CaCl2, 137 NaCl, 20 CsCl, 4 KCl, 1 MgCl2, 10 HEPES, 10 dextrose, pH=7.4 with NaOH). Pipette tip resistance was approximately 1.0 to 2.0 MΩ when filled with the internal solution. Suction was then applied to the pipette interior to seal the cell membrane onto the tip. Another suction pulse then broke the membrane, establishing electrical access into the interior of the cell. The cellular interior then became dialysed by the solution the patch pipette was filled with.
After rupture of the cell membrane (entering whole-cell mode), current kinetics and amplitudes were allowed to stabilize (currents elicited by a series of voltage pulses given at 0.1 Hz were superimposed) as the cell was dialyzed with internal solution and paced at 1 Hz (3-5 minutes). Calcium current (ICa) was measured using a voltage pulse to 0 mV (200 ms duration) from a holding potential of −60 mV. Only a pacing rate of 0.1 Hz was used. Test article, at concentrations of 0.1, 1, 3, 10, 30, and […] was added in a cumulative manner to a cell.
Currents and voltages were recorded with patch-clamp amplifiers (Axopatch 1-B, Axon Instruments, Foster City, Calif.). Creation of voltage clamp pulses and data acquisition was controlled by a computer using electrophysiology software (pCLAMP version 9.2, Axon Instruments, Foster City, Calif.). […] Each cell served as its own control.
All stock solutions (10 mM) were made by adding DMSO directly into the bottle containing the test article.
Approximate IC50 values (Table 1) were obtained from non-linear regression analysis of dose-response curves (FIG. 1) using GraphPad's Prism 5.01 software. Data was also analyzed for mean percent inhibition±SEM at the highest concentration tested, 100 μM (FIG. 2).
To test for cell sensitivity, 0.1 μM nisoldipine was added after exposure to test article.

[2] = pKa and LogP determination with a Sirius GLPKa instrument; assay type: physicochemical

T1 sequence (Q13936 whole entry): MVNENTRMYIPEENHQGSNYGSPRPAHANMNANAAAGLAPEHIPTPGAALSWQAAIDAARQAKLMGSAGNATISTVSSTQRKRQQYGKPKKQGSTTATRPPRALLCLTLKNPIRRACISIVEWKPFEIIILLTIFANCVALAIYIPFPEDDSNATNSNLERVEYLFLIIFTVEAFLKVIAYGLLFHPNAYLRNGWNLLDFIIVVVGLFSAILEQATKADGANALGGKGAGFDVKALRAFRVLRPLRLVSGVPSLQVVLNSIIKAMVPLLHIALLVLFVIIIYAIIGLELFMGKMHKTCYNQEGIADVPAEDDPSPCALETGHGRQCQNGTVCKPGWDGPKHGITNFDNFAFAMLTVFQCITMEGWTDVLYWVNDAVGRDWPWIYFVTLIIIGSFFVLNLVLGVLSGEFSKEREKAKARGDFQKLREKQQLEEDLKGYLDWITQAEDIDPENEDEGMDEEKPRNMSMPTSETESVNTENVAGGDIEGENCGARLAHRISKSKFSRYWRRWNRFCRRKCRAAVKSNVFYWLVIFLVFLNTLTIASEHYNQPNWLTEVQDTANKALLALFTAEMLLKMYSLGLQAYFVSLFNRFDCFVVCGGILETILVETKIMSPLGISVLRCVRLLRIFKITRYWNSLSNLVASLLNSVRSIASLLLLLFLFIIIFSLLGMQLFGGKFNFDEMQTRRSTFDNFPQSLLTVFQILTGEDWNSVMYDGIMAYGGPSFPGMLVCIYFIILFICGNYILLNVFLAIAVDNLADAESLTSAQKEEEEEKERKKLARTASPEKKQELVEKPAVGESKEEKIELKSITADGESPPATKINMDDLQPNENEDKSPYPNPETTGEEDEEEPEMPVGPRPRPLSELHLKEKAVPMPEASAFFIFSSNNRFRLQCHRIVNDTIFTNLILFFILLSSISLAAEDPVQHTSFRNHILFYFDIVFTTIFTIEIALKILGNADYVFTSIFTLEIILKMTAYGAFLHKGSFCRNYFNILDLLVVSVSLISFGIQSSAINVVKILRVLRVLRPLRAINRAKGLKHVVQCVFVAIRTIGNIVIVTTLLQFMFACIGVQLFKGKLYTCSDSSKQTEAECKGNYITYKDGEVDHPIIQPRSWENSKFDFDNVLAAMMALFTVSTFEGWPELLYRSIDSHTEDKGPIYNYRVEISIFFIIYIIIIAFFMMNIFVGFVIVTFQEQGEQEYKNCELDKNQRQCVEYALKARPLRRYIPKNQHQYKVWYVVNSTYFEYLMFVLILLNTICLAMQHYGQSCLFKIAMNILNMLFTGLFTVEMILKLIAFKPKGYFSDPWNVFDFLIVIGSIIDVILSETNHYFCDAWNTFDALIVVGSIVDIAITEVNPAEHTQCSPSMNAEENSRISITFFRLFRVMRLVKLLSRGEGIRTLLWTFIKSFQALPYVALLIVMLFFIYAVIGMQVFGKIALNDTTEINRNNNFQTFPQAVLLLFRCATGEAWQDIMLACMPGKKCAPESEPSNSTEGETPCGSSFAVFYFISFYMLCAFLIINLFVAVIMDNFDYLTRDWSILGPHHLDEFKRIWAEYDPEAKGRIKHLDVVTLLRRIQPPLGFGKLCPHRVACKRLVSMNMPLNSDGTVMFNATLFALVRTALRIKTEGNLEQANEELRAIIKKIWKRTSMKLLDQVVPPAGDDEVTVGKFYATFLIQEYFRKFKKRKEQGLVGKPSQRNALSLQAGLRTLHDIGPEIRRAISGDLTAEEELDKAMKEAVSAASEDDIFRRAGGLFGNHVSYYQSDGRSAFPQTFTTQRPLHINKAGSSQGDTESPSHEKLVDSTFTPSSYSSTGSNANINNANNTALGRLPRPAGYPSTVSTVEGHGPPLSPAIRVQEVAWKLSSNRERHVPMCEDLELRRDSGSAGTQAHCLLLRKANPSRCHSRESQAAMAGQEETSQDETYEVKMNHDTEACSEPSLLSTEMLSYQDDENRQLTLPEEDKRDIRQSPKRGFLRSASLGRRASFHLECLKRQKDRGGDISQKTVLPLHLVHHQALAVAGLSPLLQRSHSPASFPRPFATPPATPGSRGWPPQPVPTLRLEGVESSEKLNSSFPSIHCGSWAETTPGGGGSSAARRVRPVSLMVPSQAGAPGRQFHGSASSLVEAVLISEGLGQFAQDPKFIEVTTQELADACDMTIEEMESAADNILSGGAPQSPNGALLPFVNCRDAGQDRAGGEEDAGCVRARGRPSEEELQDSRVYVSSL
T1 sequence (Q08289 whole entry partner): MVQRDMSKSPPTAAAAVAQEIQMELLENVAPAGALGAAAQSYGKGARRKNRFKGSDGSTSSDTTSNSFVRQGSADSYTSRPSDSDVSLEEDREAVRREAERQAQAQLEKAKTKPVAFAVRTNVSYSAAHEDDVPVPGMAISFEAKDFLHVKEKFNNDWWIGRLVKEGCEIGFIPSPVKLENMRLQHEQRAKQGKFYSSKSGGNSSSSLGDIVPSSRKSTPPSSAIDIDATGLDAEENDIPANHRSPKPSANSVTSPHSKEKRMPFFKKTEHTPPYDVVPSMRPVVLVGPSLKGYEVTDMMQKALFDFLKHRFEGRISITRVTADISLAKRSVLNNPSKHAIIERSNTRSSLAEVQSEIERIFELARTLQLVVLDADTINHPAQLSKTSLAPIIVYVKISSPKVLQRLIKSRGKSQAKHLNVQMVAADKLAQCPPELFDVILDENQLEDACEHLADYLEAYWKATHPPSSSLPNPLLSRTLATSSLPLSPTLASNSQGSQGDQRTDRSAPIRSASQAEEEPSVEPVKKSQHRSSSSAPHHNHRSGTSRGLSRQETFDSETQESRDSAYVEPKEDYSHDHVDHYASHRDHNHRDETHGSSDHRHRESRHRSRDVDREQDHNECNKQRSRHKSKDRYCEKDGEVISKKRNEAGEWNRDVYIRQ
T1 sequence (P54289 25-956 partner limits assumed): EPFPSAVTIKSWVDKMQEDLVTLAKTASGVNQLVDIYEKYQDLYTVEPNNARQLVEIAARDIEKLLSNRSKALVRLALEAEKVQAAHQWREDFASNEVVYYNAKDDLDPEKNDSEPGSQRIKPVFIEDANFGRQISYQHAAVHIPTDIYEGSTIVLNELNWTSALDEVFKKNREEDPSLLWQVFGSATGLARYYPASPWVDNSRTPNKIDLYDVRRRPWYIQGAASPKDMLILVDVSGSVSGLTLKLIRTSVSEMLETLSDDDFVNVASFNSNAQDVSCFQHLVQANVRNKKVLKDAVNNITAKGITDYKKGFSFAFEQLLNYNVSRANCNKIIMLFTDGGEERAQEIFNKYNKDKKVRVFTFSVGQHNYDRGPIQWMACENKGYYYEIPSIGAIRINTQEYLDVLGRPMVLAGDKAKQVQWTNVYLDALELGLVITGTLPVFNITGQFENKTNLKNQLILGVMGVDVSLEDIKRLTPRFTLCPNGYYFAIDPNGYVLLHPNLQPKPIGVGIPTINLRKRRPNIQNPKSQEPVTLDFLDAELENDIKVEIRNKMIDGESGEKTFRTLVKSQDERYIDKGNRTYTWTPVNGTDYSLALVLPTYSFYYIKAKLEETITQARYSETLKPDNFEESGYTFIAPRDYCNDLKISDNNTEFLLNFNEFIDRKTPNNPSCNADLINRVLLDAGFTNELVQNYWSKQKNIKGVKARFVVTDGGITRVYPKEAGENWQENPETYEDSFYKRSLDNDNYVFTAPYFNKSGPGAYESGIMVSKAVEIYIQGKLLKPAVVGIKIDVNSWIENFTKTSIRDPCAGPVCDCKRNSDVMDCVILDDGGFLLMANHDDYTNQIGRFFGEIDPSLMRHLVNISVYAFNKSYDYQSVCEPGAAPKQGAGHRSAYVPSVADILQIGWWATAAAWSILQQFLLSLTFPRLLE
T1 sequence (P54289 957-1103 partner limits assumed): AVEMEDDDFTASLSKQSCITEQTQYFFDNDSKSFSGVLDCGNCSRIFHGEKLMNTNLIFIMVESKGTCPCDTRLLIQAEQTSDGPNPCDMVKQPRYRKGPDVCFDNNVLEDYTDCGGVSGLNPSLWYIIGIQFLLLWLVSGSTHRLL

SMILES | Fold Difference (Parent vs. Derivative) [1] | IC50 [1] | logP [2] | pKa [2] | reduction Ica ([1]; 0.1 μM nisoldipine added after exposure to test article, 2 cells, cell sensitivity test) | block of Ica amplitude ([1]; at 100 μM, 0.1 Hz, isolated human atrial myocytes)
COCCOCCOCCOCCOCCOc1cc([N+](=O)[O-])ccc1-c1ccc(C=NN2CC(=O)NC2=O)o1 [mPEG5-O-Dantrolene, mPEG5-O-dantrolene] | 522 | 54.3 mM | 0.74 | 7.49 | – | –
COC(=O)C1=C(C)NC(C)=C(C(=O)OCC(C)C)C1c1ccccc1[N+](=O)[O-] (centres unmarked) [nisoldipine, reference compound] | – | – | – | – | 100% | –
O=C1CN(/N=C/c2ccc(-c3ccc([N+](=O)[O-])cc3)o2)C(O)=N1 [Dantrolene] | – | 0.104 mM | – | – | – | 21.1%
COCCOCCOCCOCCOCCOCCOCCN1C(=O)CN(N=Cc2ccc(-c3ccc([N+](=O)[O-])cc3)o2)C1=O [mPEG7-N-Dantrolene, mPEG7-N-dantrolene] | 2 | 0.193 mM | – | – | – | –
COCCOCCOCCN1C(=O)CN(N=Cc2ccc(-c3ccc([N+](=O)[O-])cc3)o2)C1=O [mPEG3-N-Dantrolene, mPEG3-N-dantrolene] | 1067 | – | – | – | – | –
O=C1CN(/N=C/c2ccc(-c3ccc([N+](=O)[O-])cc3)o2)C(O)=N1 [Dantrolene sodium salt, reference compound] | – | – | – | 7.11 | – | –
COCCOCCOCCOCCOCCOCCOCCOc1cc([N+](=O)[O-])ccc1-c1ccc(C=NN2CC(=O)NC2=O)o1 [mPEG7-O-Dantrolene, mPEG7-O-dantrolene] | 444 | 46.2 mM | 0.62 | 7.32 | – | –
COCCOCCOCCOCCOCCN1C(=O)CN(N=Cc2ccc(-c3ccc([N+](=O)[O-])cc3)o2)C1=O [mPEG5-N-Dantrolene, mPEG5-N-dantrolene] | 260 | 27 mM | – | – | – | –
COCCOCCOCCOc1cc([N+](=O)[O-])ccc1-c1ccc(C=NN2CC(=O)NC2=O)o1 [mPEG3-O-Dantrolene, mPEG3-O-dantrolene] | 1144 | – | -0.6 | 8.69 | – | –
